“Also recorded” adds a separate entry of the source.
Legend:
[1] = tested on: Human lung adenocarcinoma cells A549; experiment: Binding and entry of fluorescent lipid-binding fusion proteins, human lung cells; type: cell-based; conditions: 1 mg/ml in DPBS
Protocol: C, Detection of PI-3-P but not PI-4-P on the surface of human lung cells PEPP1-mCherry or FAPP1-mCherry proteins [1 mg/ml in Dulbecco's Phosphate Buffer Saline (Ca^+2/Mg^+2 free) (DPBS; Gibco)] were incubated with Human lung adenocarcinoma cells A549 (ATCC CCL-185) for 8 hr at 4° C. or 37° C. then washed twice briefly with DPBS, before being photographed. Left panels show fluorescence image; right panels show the matching light micrograph. […] FIGS. 1B and C were adapted from FIGS. 3 and 5 respectively from Kale et al 2010. External lipid PI-3-P mediates entry of eukaryotic pathogen effectors into plant and animal host cells. Cell 142:284-295.

[2] = tested on: soybean root suspension culture cells / soybean root tips; experiment: Binding and entry of fluorescent lipid-binding fusion proteins, soybean root cells; type: cell-based; conditions: 1 mg/ml in 25 mM MES pH 5.8, 4° C., suspension culture cells 6 hr or root tips 12 hr
Protocol: B, Detection of PI-3-P but not PI-4-P on the surface of soybean cells. PEPP1-GFP or FAPP1-GFP proteins (1 mg/ml in 25 mM MES pH 5.8) were incubated with soybean root suspension culture cells for 6 hr or with soybean root tips for 12 hr at 4° C. then washed for 2 hr with 25 mM MES pH 5.8, then plasmolyzed with 0.8M Mannitol (suspension culture cells) or 4M NaCl (roots) for 30 minutes, before being photographed. Left panels show fluorescence image; right panels show the matching light micrograph. Plasma membranes are indicated by the white arrow heads.

P. sojae hyphae = experiment: Binding and entry of fluorescent lipid-binding fusion proteins, P. sojae hyphae, confocal microscopy; type: cell-based, Phytophthora sojae
Protocol: A, Phosphatidylinositol-4-phosphate (PI-4-P) on the surface of P. sojae membranes mediates selective protein entry. Phosphatidylinositol-4-phosphate adaptor protein-1 (FAPP1)-mCherry, FAPP1-GFP, mCHerry alone or phosphatidylinositol-3-phosphate-binding PH-domain protein-1 (PEPP1)-GFP proteins (1 mg/ml) were incubated together with P. sojae hyphae for 12 hr, then washed extensively. Left panels show fluorescence image; right panels show the matching light micrograph.
To test for the presence of PI-3-P and PI-4-P on P. sojae hyphae, and the ability of those phosphoinositides to carry binding proteins into the hyphae, the pleckstrin-homology (PH) domains of the human proteins phosphatidylinositol-3-phosphate-binding PH-domain protein-1 (PEPP1) and phosphatidylinositol-4-phosphate adaptor protein-1 (FAPP1), respectively, were utilized (Dowler et al., 2000). […] To create biosensors capable of detecting PI-3P and PI-4-P in vivo, the PH domain of PEPP1 was fused to green fluorescent protein (GFP) and the PH domain of FAPP1 was fused to the modified red fluorescent protein, mCherry. (Sequences of the nucleic acids used for the production of these proteins, and the amino acid sequences corresponding to the same, are presented in FIGS. 6 A and B ([…]) and FIGS. 7 A and B (GST-FAPP1-mCherry. PEPP1-GFP and FAPP1-mCherry proteins (1 mg/ml in 25 mM 2-(N-morpholino)ethanesulfonic acid (MES) pH 5.8) were incubated with P. sojae hyphae for 6 hr at 25° C. then washed for 30 min with 25 mM MES pH 5.8, before being photographed using a Zeiss LSM510 laser scanning confocal microscope with an argon laser excitation wavelength of 488 nm for GFP or with a HeNe laser at a wavelength of 543 nm for mCherry.

[3] = 1 mg/ml in 25 mM MES pH 5.8, 6 hr at 25° C., confocal microscopy
[4] = hyphae stained simultaneously with PEPP1-GFP and FAPP1-mCherry

Substance: FAPP1-mCherry: PH domain of human FAPP1 (PI-4-P-binding) fused to the modified red fluorescent protein mCherry; SEQ ID NO: 8
- binding to the surface of human A549 cells ([1]; 8 hr at 4° C. (endocytosis inhibited)): not and neither binds to the surface of the cells and does neither
- entry into human A549 cells ([1]; 8 hr at 37° C. (endocytosis active)): not and nor enters the cells and does neither
- entry into soybean cells [2]: not
- binding to the surface of soybean cells ([2]; plasmolyzed): not
- binding to the membrane of P. sojae hyphae (P. sojae hyphae; [3]): bound to the membrane of P. sojae hyphae
- entry into P. sojae hyphae (P. sojae hyphae; [3]): entered into the cells in abundance; also recorded: entered P. sojae hyphae
- cellular entry, P. sojae hyphae (P. sojae hyphae; [4]): cellular entry
- membrane binding, P. sojae hyphae (P. sojae hyphae; [4]): strong membrane binding

Reference: patent US20110165649A1, “METHODS AND COMPOSITIONS TO IMPROVE THE HEALTH OF PLANTS, ANIMALS AND MICROBES BY MANIPULATING PROTEIN ENTRY INTO SYMBIONTS AND THEIR HOSTS” (priority 2010, published 2011)
